# Laboratory results reported in ChEMBL document CHEMBL1799913, “A combined spectroscopic and crystallographic approach to probing drug-human serum albumin interactions” (Bioorg Med Chem, 2010).
# Assays:
# [1] = target: T1, human serum albumin site 2 (Homo sapiens, UniProt P02768); test: in vitro; conditions: fatty acid-free human serum albumin, pH 7.4, probe dansylsarcosine
# Description: Displacement of radiolabeled dansylsarcosine from fatty acid-free human serum albumin site 2 in phosphate buffer at pH 7.4 at 12 uM by fluorescence spectroscopy
# [2] = target: T1, human serum albumin site 2; test: in vitro; conditions: fatty acid containing human serum albumin, pH 7.4, probe dansylsarcosine
# Description: Displacement of radiolabeled dansylsarcosine from fatty acid containing human serum albumin site 2 in phosphate buffer at pH 7.4 at 12 uM by fluorescence spectroscopy
# [3] = target: T2, human serum albumin site 1 (Homo sapiens, UniProt P02768); test: in vitro; conditions: fatty acid-free human serum albumin, pH 7.4, probe warfarin
# T2 sequence (P02768 whole entry): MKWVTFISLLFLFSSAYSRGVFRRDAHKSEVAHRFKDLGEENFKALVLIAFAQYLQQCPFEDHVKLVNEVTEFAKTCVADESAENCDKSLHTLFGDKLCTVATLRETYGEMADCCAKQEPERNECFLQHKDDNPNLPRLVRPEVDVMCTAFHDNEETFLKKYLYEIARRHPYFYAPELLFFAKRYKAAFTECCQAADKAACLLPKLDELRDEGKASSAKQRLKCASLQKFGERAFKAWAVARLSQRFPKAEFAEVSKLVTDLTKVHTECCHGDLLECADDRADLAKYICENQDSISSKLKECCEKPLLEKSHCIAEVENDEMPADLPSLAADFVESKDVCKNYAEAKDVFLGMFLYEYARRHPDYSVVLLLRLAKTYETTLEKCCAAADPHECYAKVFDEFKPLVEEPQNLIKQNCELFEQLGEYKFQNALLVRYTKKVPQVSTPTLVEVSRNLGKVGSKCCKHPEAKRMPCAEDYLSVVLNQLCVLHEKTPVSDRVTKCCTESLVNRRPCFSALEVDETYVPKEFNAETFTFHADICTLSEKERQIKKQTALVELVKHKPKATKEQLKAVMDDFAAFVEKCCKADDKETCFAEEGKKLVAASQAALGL
# Description: Displacement of radiolabeled warfarin from fatty acid-free human serum albumin site 1 in phosphate buffer at pH 7.4 at 12 uM by fluorescence spectroscopy
# [4] = target: T2, human serum albumin site 1; test: in vitro; conditions: fatty acid containing human serum albumin, pH 7.4, probe warfarin
# Description: Displacement of radiolabeled warfarin from fatty acid containing human serum albumin site 1 in phosphate buffer at pH 7.4 at 12 uM by fluorescence spectroscopy
# [5] = Octanol-buffer partition coefficient, log D of the compound at pH 7.4 by shake-flask method
# Albumin [6] = target: T3, Albumin (Homo sapiens, UniProt P02768); conditions: isolated protein
# T3 sequence (P02768 whole entry): as above
# Description: Binding affinity to fatty acid-containing human serum albumin by equilibrium dialysis
# [7] = Lipophilicity, log P of the compound in octanol
# physchem = conditions: phosphate buffer, pH 7.4
# Description: Aqueous solubility of the compound in phosphate buffer solution of pH 7.4 after 24 hrs by LC-UV analysis
# Albumin [8] = target: T3, Albumin; conditions: isolated protein; remark: listed apart in the source
# Description: Binding affinity to fatty acid-free human serum albumin by equilibrium dialysis
# [9] = Dissociation constant, pKa of the compound by spectrophotometric titration; format: physicochemical
# [10] = target: T2, human serum albumin site 1; test: in vitro; conditions: pH 7.4, probe warfarin
# Description: Displacement of radiolabeled warfarin from human serum albumin site 1 in phosphate buffer at pH 7.4 at 100 uM by fluorescence spectroscopy
# [11] = target: T1, human serum albumin site 2; test: in vitro; conditions: pH 7.4, probe dansylsarcosine
# Description: Displacement of radiolabeled dansylsarcosine from human serum albumin site 2 in phosphate buffer at pH 7.4 at 100 uM by fluorescence spectroscopy
# [12] = target: T1, human serum albumin site 2; test: Displacement of […] dansylsarcosine from human serum albumin site 2 in phosphate buffer at pH 7.4 at 4 uM by fluorescence spectroscopy; conditions: pH 7.4, probe dansylsarcosine, read-out: Activity
# [13] = target: T2, human serum albumin site 1; test: Displacement of […] warfarin from human serum albumin site 1 in phosphate buffer at pH 7.4 at 4 uM by fluorescence spectroscopy; conditions: pH 7.4, probe warfarin, read-out: Activity
# Albumin [14] = target: T3, Albumin; test: Binding affinity to human serum albumin by equilibrium dialysis; format: ADME; conditions: isolated protein
# T1 sequence (P02768 whole entry): as above
SMILES,inhibition at 12 µM [1] [%],inhibition at 12 µM [2] [%],inhibition at 12 µM [3] [%],inhibition at 12 µM [4] [%],other results
O=C(O)CCC(=O)c1ccc(-c2ccccc2)cc1 [FENBUFEN],70,66.2,0,0,
O=C1NC(=O)C(c2ccccc2)(c2ccccc2)N1 [PHENYTOIN],0,18.8,4,9.3,
N[C@@H](Cc1c[nH]c2ccccc12)C(=O)O [TRYPTOPHAN],15.3,15.1,0,0,
NS(=O)(=O)c1cc(C(=O)O)c(NCc2ccco2)cc1Cl [FUROSEMIDE],19.2,49,36.2,47.3,
NS(=O)(=O)c1cc2c(cc1Cl)N=CNS2(=O)=O [CHLOROTHIAZIDE],8,18.8,28.9,16,
CN1C(C(=O)Nc2ccccn2)=C(O)c2sccc2S1(=O)=O [TENOXICAM],27.4,38.5,52.3,61.7,
O=C(O)CCC[C@@H]1c2ccccc2C[C@H]1NC(=O)c1cc2cc(F)ccc2[nH]1,,,,,logD [5]: 1.95; log Ks (Albumin [6]): 5.41; logP [7]: 5.11; solubility at 24 h (physchem): 86 µM; log Ks (Albumin [8]): 5.41; pKa [9]: 4.24
CC/C(=C(\c1ccccc1)c1ccc(OCCN(C)C)cc1)c1ccccc1 [TAMOXIFEN],16.3,62.2,0,0,
CC(=O)Nc1nc(C)c(-c2cnc(F)c(NS(=O)(=O)c3sc(C)nc3C)c2)s1,,,,,log Ks (Albumin [6]): 5.62; inhibition at 100 µM [10]: 6%; solubility at 24 h (physchem): > 1700 µM; inhibition at 100 µM [11]: 7%; log Ks (Albumin [8]): 5.88; pKa [9]: 4.71
Cc1onc(-c2ccccc2Cl)c1C(=O)N[C@@H]1C(=O)N2[C@@H]1SC(C)(C)[C@@H]2C(=O)O [CLOXACILLIN],24.1,18.1,0,5.7,
O=C(O)c1ccccc1Nc1cccc(C(F)(F)F)c1 [FLUFENAMIC ACID],95.8,91.2,48.6,68.6,inhibition at 4 µM [12]: 73%; inhibition at 4 µM [13]: 24%; log Ks (Albumin [14]): 6.68
O=C(O)C[C@@H]1c2ccccc2C[C@H]1NC(=O)c1cc2cc(F)ccc2[nH]1,,,,,logD [5]: 1.26; log Ks (Albumin [6]): 6.11; logP [7]: 4.71; solubility at 24 h (physchem): 1930 µM; log Ks (Albumin [8]): 5.97; pKa [9]: 3.95
COc1ccc(Cl)cc1C(=O)NCCc1ccc(S(=O)(=O)NC(=O)NC2CCCCC2)cc1 [GLYBURIDE],33.9,62.2,28.6,50.7,solubility at 24 h (physchem): 11 µM
O=C1CN=C(c2ccccc2Cl)c2cc([N+](=O)[O-])ccc2N1 [CLONAZEPAM],16.2,19.5,0,3.8,
O=C1C(CC[S+]([O-])c2ccccc2)C(=O)N(c2ccccc2)N1c1ccccc1 (stereo not given) [SULFINPYRAZONE],18.6,34.2,35.2,44.1,
Cc1cc(NC(=O)C2=C(O)c3ccccc3S(=O)(=O)N2C)no1 [ISOXICAM],33.1,32.6,51.7,38,
CCN(CC)CCN1C(=O)CN=C(c2ccccc2F)c2cc(Cl)ccc21 [FLURAZEPAM],4.3,2.7,0,6.3,log Ks (Albumin [14]): 3.38
CN1C(C(=O)Nc2ccccn2)=C(O)c2ccccc2S1(=O)=O [PIROXICAM],45.5,44.8,6.7,53.5,
CCCNC(=O)NS(=O)(=O)c1ccc(Cl)cc1 [CHLORPROPAMIDE],28.5,26,19.2,18.5,
CN(C)c1cccc2c(S(=O)(=O)N(C)CC(=O)O)cccc12 [DANSYLSARCOSINE],,,,,log Ks (Albumin [14]): 5.39
CC(C)NCC(O)COc1cccc2[nH]ccc12 (stereo not given) [PINDOLOL],0.2,9.5,0,0,log Ks (Albumin [14]): 2.65
CC(=O)CC(c1ccc([N+](=O)[O-])cc1)c1c(O)c2ccccc2oc1=O (stereo not given) [ACENOCOUMAROL],12.5,39,49.8,54.6,
COc1ccc2cc([C@H](C)C(=O)O)ccc2c1 [NAPROXEN],91.3,79.9,24.7,38.8,
O=c1oc2ccccc2c(O)c1Cc1c(O)c2ccccc2oc1=O [DICUMAROL],88.8,19.8,86.4,10.5,
